From patent US11425909B2, “Use of tetrazolinones for combating resistant phytopathogenic fungi on fruits” (priority 2016, dated 2022)

Test system: Uncinula necator (UNCINE), Qol-sensitive isolate
Assay: Activity against grape powdery mildew, protective glasshouse test, Qol-sensitive isolate
Format: in vivo
Details: % infected leaf area on grape plants, inoculated 2 days after treatment, assessed 19 days after inoculation
Method: Activity against grape powdery mildew caused by Uncinula necator (UNCINE)
The active compounds were formulated separately. Both compounds were applied on plants at the same concentrations of 100, 25 and 5 ppm. The spray broths were prepared as aqueous solutions based on a 6% EC of compound I according to the present invention and a 5% Aceton/water solution of compound I-213 from prior art (WO2013/092224).
The spray solutions were applied until runoff using an experimental glasshouse spray machine at a water volume equivalent to 1.000 L/ha. Treated plants were placed (together with untreated plants as a reference for infection success) in a glasshouse chamber at approx. 18° C. and 50% rH for two days. Two days after treatment, the plants were split into two groups. They were artificially inoculated using an aqueous conidia suspension of 0.1 to 0.5 E05 conidia/ml. One part was inoculated using a Qol-sensitive isolate, the other part using a Qol-resistant isolate carrying the target mutation G143A. After the artificial inoculation, the plants were placed in a glasshouse chamber at 21° C. and 55% rH for 19 days. The assessment of the infection was done 19 days after the inoculation and reported as % infected leaf area on two leaves which were fully covered by the spray application.

Cc1cccc(-n2nnn(C)c2=O)c1COc1ccn(-c2ccc(Cl)cc2)n1 [compound I, 1-[2-[[1-(4-chlorophenyl)pyrazol-3-yl]oxymethyl]-3-methyl-phenyl]-4-methyl-tetrazol-5-one]
Infection (%) Sens. Uncinula necator (5 ppm spray): 0.3% | Infection (%) Sens. Uncinula necator (25 ppm spray): 0.4% | Infection (%) Sens. Uncinula necator (100 ppm spray): 0.0%
